# Laboratory results: patent US20210369664A1, “PROPHYLACTIC OR THERAPEUTIC AGENT FOR PULMONARY HYPERTENSION WHICH COMPRISES PPAR? AGONIST” (TOHOKU UNIVERSITY, priority 2016, published 2021)
# Columns and labels:
# [1] = Average body weight of the administration groups in the hypoxia test; type: in vivo
# Description: After the hypoxic stimulation for 3 weeks, a 1.2-Fr catheter (SciSense Inc., Ontario, Canada) was inserted in the jugular vein of the mice under isoflurane anesthesia and advanced into the right ventricle to measure a right ventricular systolic pressure. In addition, after the measurement of the right ventricular systolic pressure, the heart and the lungs were dissected. For the heart, the right ventricle and the left ventricle were separated and their weight ratio was measured to assess right ventricular hypertrophy. The average body weights of the Control group (PPARα agonist: −, Hypoxia [3 wks]: −), the Vehicle group (PPARα agonist: −, Hypoxia [3 wks]: +), and the WY-14643 administration group (PPARα agonist: +, Hypoxia [3 wks]: +) before the test were 29.2±1.2 g, 28.9±1.0 g, and 29.6±1.4 g, respectively. In addition, the average body weights of the Control group, the Vehicle group, and the WY-14643 administration group after the test were 32.1±2.1 g, 23.5±1.8 g, and 25.7±2.0 g, respectively.
# [2] = tested on: hypoxia-induced pulmonary hypertension mice; settings: WY-14643 3 mg/kg/day by mixed feed
# Description: Hypoxia-induced pulmonary hypertension mice serving as a model generally used in an animal experiment for pulmonary hypertension were administered a PPARα agonist (WY-14643, Sigma) at 3 mg/kg/day by mixed feed. Specifically, first, 8-week-old male wild-type mice (Balb/c mice, n=12 per group) were housed in a transparent acrylic box with an oxygen concentration controlled to 10% using a hypoxia generator (Teijin Limited, Japan) under a 12 h light and dark cycle. The mice were stimulated by hypoxia for 3 weeks, and a diet in this period was mixed with WY-14643 (the following solution was used as WY-14643: 1 mg of WY-14643 was dissolved in 0.1 ml of DMSO, and the solution of WY-14643 in DMSO was mixed with ultrapure water (mQ or ultrapure water) to prepare a 100 ml solution). The administration by mixed feed was performed at 3 mg/kg/day according to the previous report (Andrew D, et al. Hepatology. 2012; 56: 281-290). […] The following tests were also performed as controls: a test in which the mice were stimulated by hypoxia in the same manner as described above except that the mice were administered a 1:1,000 (V/V) mixed solution of DMSO and ultrapure water by mixed feed in place of WY-14643 as a diet; and a test in which the mice were administered the mixed solution of DMSO and ultrapure water by mixed feed in place of WY-14643 as a diet and were not stimulated by hypoxia.
# After the hypoxic stimulation for 3 weeks, a 1.2-Fr catheter (SciSense Inc., Ontario, Canada) was inserted in the jugular vein of the mice under isoflurane anesthesia and advanced into the right ventricle to measure a right ventricular systolic pressure. In addition, after the measurement of the right ventricular systolic pressure, the heart and the lungs were dissected. For the heart, the right ventricle and the left ventricle were separated and their weight ratio was measured to assess right ventricular hypertrophy.
# In addition, in tissue slides of the formalin-fixed lungs of each group, the number of pulmonary vessels including thrombi was counted for a field of about 100 mm^2, and the number of the pulmonary vessels including thrombi per 100 mm^2 was calculated. […] The resultant plasma sample was measured for its D-dimer concentration in plasma (unit: ng/ml) through the use of an ELISA kit (CEA506Mu manufactured by Life Science Inc.) according to the instruction of the kit. In addition, the plasma sample was measured for its thrombin-antithrombin complex (TAT) concentration in plasma (unit: pg/ml) through the use of an ELISA kit (SEA831Mu manufactured by Life Science Inc.) according to the instruction of the kit.
# The dissected lungs were fixed with 10% formalin for 24 hours, and then 3 μm sections of the specimens were used to prepare slides. The slides were subjected to Elastica-Masson staining for staining elastic fiber in order to assess vessel wall thickening (remodeling). 60 to 80 distal pulmonary arteries having diameters of from 20 μm to 70 μm were observed per mouse, and their wall thickening was divided into 3 stages.
Structure (SMILES),"average body weight after the test ([1]; WY-14643 administration group, 3 mg/kg/day, after 3 weeks hypoxia, Example 1)","thrombus formation (number of pulmonary vessels including thrombi per 100 mm^2) ([2]; chronic hypoxic stimulation 3 weeks, lung tissue slides (FIG. 2))",pulmonary hypertension (overall result) ([2]; hypoxia 3 weeks),remodeling of distal pulmonary vessels (Elastica-Masson staining) ([2]; hypoxia 3 weeks (FIG. 3)),"right ventricular hypertrophy (right ventricle/(left ventricle plus septum) weight ratio) ([2]; hypoxia 3 weeks, Balb/c mice (FIG. 1))","D-dimer/TAT ratio (indicator of impaired fibrinolytic capacity) ([2]; hypoxia 3 weeks, plasma, ELISA (FIG. 2))","right ventricular systolic pressure ([2]; hypoxia (10% oxygen) 3 weeks, Balb/c mice, vs vehicle (FIG. 1))","average body weight after the test ([1]; fenofibrate administration group, 50 mg/kg/day, Example 3)"
"Cc1cccc(Nc2cc(Cl)nc(SCC(=O)O)n2)c1C [WY-14643, [[4-chloro-6-[(2,3-dimethylphenyl)amino]pyrimidin-2-yl]thio]acetic acid]",25.7 ± 2.0 g,suppressed the increase in thrombus formation,ameliorated pulmonary hypertension,significant reduction,Significant reductions,its reduction was found,Significant reductions,–
"CC(C)OC(=O)C(C)(C)Oc1ccc(C(=O)c2ccc(Cl)cc2)cc1 [fenofibrate, isopropyl 2-[4-(4-chlorobenzoyl)phenoxy]-2-methylpropionate]",–,–,–,–,–,–,–,334.30 ± 20.67 g
